Reference: PubChem BioAssay (NCI)
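96-well plates; 48 h exposure; 5 concentrations. Endpoints by linear interpolation between flanking doses. Not reached: highest tested concentration assigned. GI50 = concentration required for 50% inhibition of growth. TGI denotes the concentration required for complete inhibition of growth.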

Key:
Assay in all cases: DTP human tumour cell line panel, 48 h
RXF 393 renal = tested on: RXF 393 renal
NCI-H460 lung = tested on: NCI-H460 lung
UACC-62 melanoma = tested on: UACC-62 melanoma
HS 578T breast = tested on: HS 578T breast
RPMI-8226 leukemia = tested on: RPMI-8226 leukemia
MOLT-4 leukemia = tested on: MOLT-4 leukemia
SW-620 colon = tested on: SW-620 colon
SK-MEL-5 melanoma = tested on: SK-MEL-5 melanoma
IGROV1 ovarian = tested on: IGROV1 ovarian
OVCAR-8 ovarian = tested on: OVCAR-8 ovarian

Row | SMILES | GI50 (RXF 393 renal) | TGI (RXF 393 renal) | GI50 (NCI-H460 lung) | TGI (NCI-H460 lung) | GI50 (UACC-62 melanoma) | TGI (UACC-62 melanoma) | GI50 (HS 578T breast) | TGI (HS 578T breast) | GI50 (RPMI-8226 leukemia) | TGI (RPMI-8226 leukemia) | GI50 (MOLT-4 leukemia) | TGI (MOLT-4 leukemia) | GI50 (SW-620 colon) | TGI (SW-620 colon) | GI50 (SK-MEL-5 melanoma) | TGI (SK-MEL-5 melanoma) | GI50 (IGROV1 ovarian) | TGI (IGROV1 ovarian) | GI50 (OVCAR-8 ovarian) | TGI (OVCAR-8 ovarian)
1 | CN(C)CCN1C(=O)c2ccccc2N(C)c2ccccc21 | > 100 µM | > 100 µM | > 100 µM | > 100 µM | > 100 µM | > 100 µM | > 100 µM | > 100 µM | > 100 µM | > 100 µM | > 100 µM | > 100 µM | > 100 µM | > 100 µM | > 100 µM | > 100 µM | > 100 µM | > 100 µM | > 100 µM | > 100 µM
2 | O=C1Nc2ccccc2/C1=C/C(=O)c1coc2c1C(=O)c1ccccc1C2=O | > 100 µM | > 100 µM | > 100 µM | > 100 µM | 94.4 µM | > 100 µM | > 100 µM | > 100 µM | > 100 µM | > 100 µM | 62.3 µM | > 100 µM | 99.6 µM | > 100 µM | 30.4 µM | > 100 µM | > 100 µM | > 100 µM | > 100 µM | > 100 µM
3 | N#CC(NC12CC3CC(CC(C3)C1)C2)c1ccc2c(c1)OCO2 (stereo not drawn) | – | > 100 µM | – | > 100 µM | – | > 100 µM | – | > 100 µM | – | > 100 µM | – | > 100 µM | – | > 100 µM | – | > 100 µM | – | > 100 µM | – | > 100 µM
4 | C=C1C(=O)O[C@H]2[C@H]1CC/C(COC(=O)NCc1ccc(Cn3c(=O)sn(CCCl)c3=O)cc1)=C\CC[C@@]1(C)O[C@@H]21 | 1.18 µM | 2.64 µM | 15 µM | 32.5 µM | 1.86 µM | 3.95 µM | 12.1 µM | 55.9 µM | 2.37 µM | 6.25 µM | 1.85 µM | 5.92 µM | 1.17 µM | 2.69 µM | 1.7 µM | 3.24 µM | 2.5 µM | 6.79 µM | 2.04 µM | 4.81 µM
5 | COC(=O)C1(C)CCC(c2ccc(C)cc2)=C(CC(=O)O)C1 (stereo not drawn) | – | > 100 µM | – | > 100 µM | – | > 100 µM | – | > 100 µM | – | > 100 µM | – | > 100 µM | – | > 100 µM | – | > 100 µM | – | > 100 µM | – | > 100 µM
6 | Nc1c(C(=O)c2cccc(-c3ccncc3)c2)cnn1-c1ccc(F)cc1F | 8.75 µM | > 25 µM | 5.2 µM | > 25 µM | 5.34 µM | > 25 µM | > 25 µM | > 25 µM | 6.16 µM | > 25 µM | 8.39 µM | > 25 µM | 3.12 µM | > 25 µM | 1.68 µM | 8.49 µM | 9.98 µM | > 25 µM | 18.3 µM | > 25 µM
7 | COc1ccc(C(=O)c2cc(OC)c(OC)c(OC)c2)cc1OC(=O)CCl | 0.0441 µM | > 100 µM | 0.0399 µM | > 100 µM | 0.565 µM | > 100 µM | 0.0281 µM | > 100 µM | < 0.021 µM | 12.9 µM | < 0.0209 µM | > 100 µM | < 0.0208 µM | > 100 µM | 0.0338 µM | 0.434 µM | 0.359 µM | > 100 µM | 0.052 µM | > 100 µM
8 | COc1ccc(-c2c[nH]c(C(=O)O)c2-c2cc(OC)c(OC)c(OC)c2)cc1 | 2.33 µM | 6.77 µM | 3.8 µM | > 100 µM | 4.13 µM | > 100 µM | 3.42 µM | > 100 µM | 4.24 µM | > 100 µM | 4.95 µM | > 100 µM | 3.94 µM | > 100 µM | 3.5 µM | > 100 µM | 5.5 µM | > 100 µM | 5.44 µM | > 100 µM
9 | CN(O)c1nc(N(C)O)nc(N2CCOCC2)n1 | 6.15 µM | > 100 µM | 0.8 µM | > 100 µM | 4.12 µM | > 100 µM | 64.2 µM | > 100 µM | 3.85 µM | > 100 µM | 7.09 µM | > 100 µM | 11.2 µM | > 100 µM | 4.09 µM | > 100 µM | 2.27 µM | > 100 µM | 3.85 µM | > 100 µM
10 | CC(C)(C)c1ccc(Oc2nccc(-c3c(-c4ccc(F)cc4)ncn3C3CCNCC3)n2)cc1 | 3.22 µM | 7.07 µM | 3.91 µM | 8.21 µM | 4.25 µM | 7.77 µM | 5.1 µM | 13.1 µM | 3.56 µM | 7.97 µM | 2.93 µM | 7.13 µM | 3.96 µM | 7.82 µM | 3.68 µM | 7.03 µM | 3.86 µM | 8.01 µM | 3.72 µM | 7.36 µM
11 | Fc1ccc2c(c1)C1=NN(c3ccccc3)C(F)C1CO2 (stereo not drawn) | 7.33 µM | 41.4 µM | 10.5 µM | > 50 µM | 6.43 µM | 14 µM | 10.6 µM | 28.1 µM | 9.04 µM | 33.4 µM | > 50 µM | > 50 µM | 9.95 µM | 23.6 µM | 8.48 µM | 16.2 µM | 15.2 µM | > 50 µM | 9.04 µM | 27.3 µM
12 | CC(C)[C@H](N)C(=O)N1CCC[C@H]1B(O)O | > 100 µM | > 100 µM | > 100 µM | > 100 µM | > 100 µM | > 100 µM | > 100 µM | > 100 µM | > 100 µM | > 100 µM | > 100 µM | > 100 µM | > 100 µM | > 100 µM | > 100 µM | > 100 µM | > 100 µM | > 100 µM | > 100 µM | > 100 µM
13 | COc1ccc(-c2cc(=O)[nH]c3c(OC)c4ccccc4c(OC)c23)cc1 | 0.409 µM | > 19.9 µM | 0.379 µM | – | 0.396 µM | > 100 µM | 0.345 µM | – | 0.289 µM | > 20.2 µM | 0.914 µM | > 100 µM | 0.418 µM | > 100 µM | 0.398 µM | > 100 µM | 0.47 µM | > 91.5 µM | 1.29 µM | > 100 µM
